This is an account of results in US4389412A, “Substituted cyclopropanecarboxylic acid esters and pesticidal compositions containing the same as active ingredient” (priority 1979, dated 1983).

In data set [1] the test system is houseflies (Musca domestica). The experiment in a line: Mortality test with houseflies by topical application method. The conditions noted are these: 24 h; for mortality at 0.001 mg: read-out: Pesticidal effect, housefly.
Data set [2] relates to tobacco cutworm (Prodenia litura). The experiment in a line: Utility Example-5: spray on soy bean leaves, tobacco cutworm larvae. Type of data set: in vivo. To be noted: 48 h, 2 days. As for the experimental part:
An acetone solution of one of the test compounds as mentioned in Table 13 and Tween-20 (the same surfactant as mentioned hereinbefore) was prepared. This acetone solution was diluted with water to prepare a solution containing the test compound in a predetermined concentration. Leaves of soy bean in pots were sprayed with the above diluted solution at the rate of 20 ml/pot and, after one day, ten 3-instar larvae of tobacco cutworm (Prodenia litura) were released on the leaves. The pots were kept in a constant-temperature chamber at 25° C.

Data set [3] relates to green rice leafhoppers (Nephotettix cincticeps Uhler). The experiment in a line: Mortality test with green rice leafhoppers by topical application method. To be noted: for LD50 / mortality at 0.01 µg/female / mortality at 0.1 µg/female / mortality at 1 µg/female / mortality at 10 ng: Nephotettix cincticeps, in Oryza sativa, 24 h; for LD50: read-out: LD50 (median lethal dose), topical, green rice leafhoppers; for mortality at 10 ng: read-out: Pesticidal effect, green rice leafhopper. On the procedure: Mortality test with green rice leafhoppers (Nephotettix cincticeps Uhler) by topical application method
Then, the insects were kept at 25° C. with access to rice plant seedlings. The insects were used in groups of 15 individuals each.

Data set [4] concerns rice stem borers (Chilo suppressalis Walker). The experiment in a line: Mortality test with rice stem borers by topical application method. Format: in vivo. To be noted: for mortality at 0.001 mg: read-out: Pesticidal effect, rice stem borer. On the procedure: Mortality test with rice stem borers (Chilo suppressalis Walker) by topical application method
Using a microsyringe, 0.5 μl of the above solution was applied to the thoracic abdominal region of each final-instar larva of rice stem borer (Chilo suppressalis Walker). […] The test larvae were used in groups of 20 individuals each.

Data set [5] deals with tobacco cutworms (Prodenia litura Fabricius). The data set can be described thus: Mortality test with tobacco cutworms by topical application method. Type of data set: in vivo. As for the experimental part: Mortality test with tobacco cutworms (Prodenia litura Fabricius) by topical application method
Using a microsyringe, 0.5 μl of the above solution was dripped onto the thoracic adbominal region of each of 3-instar tobacco cutworm (Prodenia litura Fabricius) larvae. […] The test larvae were used in groups of 20 individuals each.

A short description of data set [6]: Fish toxicity test with carp. Format: in vivo, Cyprinus carpio L. To be noted: carp, water, 48 hrs., 21±1° C.; read-out: TLm, Carp (48 hrs.). On the procedure:
Fish toxicity test with carp (Cyprinus carpio L)
An acetone solution of one of the test compounds as mentioned in Table 10 and Tween-20 (the same surfactant as mentioned hereinbefore) was prepared. To 50 liters of water (30 cm deep) in a glass tank was added the above acetone solution. The mixture was stirred thoroughly to prepare an aqueous solution containing the test compound in a predetermined concentration. This was used as a test water. Five carps (Cyprinus carpio L) with a body weight of about 6 g and a body length of about 6 cm were released into each test water which was maintained at 21±1° C. After 48 hours, the test fish was examined for death. The TLm (median tolerance limit, ppm) was determined. The test water was moderately aerated.

A further data set concerns carp and water flea. The data set can be described thus: Fish toxicity ranking according to Japanese regulations. Details: species or system Cyprinus carpio L; Daphnia pulex. The conditions noted are these: from TLm for carp and water flea. On the procedure: The above ranking with symbols A, B and C were determined according to Japanese regulations relative to application of agricultural chemicals, and these symbols are defined as follows: […]
A: TLm (48 hrs.) value >10 ppm for carp and TLm (3 hrs.) value >0.5 ppm for water flea, wherein toxicity to fishes is not observed by usual application.
B: TLm (48 hrs.) value 10-0.5 ppm for carp; or TLm (48 hrs.) value >10 ppm for carp and TLm (3 hrs.) value <0.5 ppm for water flea, wherein appreciable toxicity to fishes is not observed by usual application but may be observed when applied to wide area at one time.
C: TLm (48 hrs.) value <0.5 ppm for carp, wherein toxicity to fishes is so strongly observed by usual application that both the application method and application area are strictly restricted.

Data set [7] has as its system brown planthoppers (Nilaparvata lugens Stal). The data set can be described thus: Utility Example-1: LC50 on adult brown planthoppers on dipped rice plants. Type of data set: in vivo. To be noted: Nilaparvata lugens, 24 h, 25° C., read-out: Pesticidal activity LC50. As for the experimental part:
A 1% emulsifiable concentrate of each test compound as prepared by the procedure described in Formulation Example 2 was diluted with water to prepare a test solution of predetermined concentration.
Rice plants, 4 weeks after sowing (cultivated in a pot 6 cm in diameter, 7 seedlings) were dipped in the above solution and after allowing them to dry in the air, the pot was covered with a wire-mesh cage. Then, 30 adult brown planthoppers (Nilaparvata lugens Stal) were released into the cage and the pot was kept in a constant-temperature chamber at 25° C.

Data set [8] is described as follows: Fish toxicity safety factor (TLm divided by maximum concentration in cover water). To be noted: in vivo, TLm / maximum concentration in cover water at LC50 application (100 l per 10 ares, 5 cm depth). Details: species or system carp. On the procedure: To further confirm the low toxicity to fish and high pesticidal activity of Compounds (1) and (2) according to this invention as evidenced by the fish toxicity tests with carps and the above tests, fish toxicity safety factors were calculated from the fish toxicity and pesticidal test data. These fish toxicity safety factors are indicators of safety to fish inhabiting a paddy field to which Compounds (1) and (2) may be actually applied for pest control purposes.
It is first assumed that such a pesticidal solution would normally be applied at the rate of 100 l per 10 ares of paddy field. It is also assumed that a solution (100 l) corresponding to the LC50 of the compounds would be applied to 10 ares of a paddy field carrying a cover water with a depth of 5 cm above ground surface and that all the solution would then find its way into the cover water. The expected maximum concentration of the compound in the cover water is then calculated. The fish toxicity safety factor of a pesticidal compound is defined as the value obtained by dividing the TLm (ppm) of the particular compound by the maximum concentration of the compound in cover water. The meaning of the value of the fish toxicity safety factor being one (1) is that the maximum concentration of the particular compound in cover water corresponds to the TLm of said compound. It is understood that when the pesticidal compound having a fish toxicity safety factor value of less than one (1) is applied to a paddy field, it has a risk of destroying the fish inhabiting there, and that the higher the safety factor value, the higher is the safety of the compound to fish.
This fish toxicity safety factor will now be explained in further detailed by taking the trans-isomer of Compound (2) of this invention as an example.
On the other hand, the toxicity to fish of this compound is TLm >10 ppm. Therefore, by dividing the TLm (i.e. >10 ppm) by the above cover water maximum concentration (i.e. 0.36 ppm), we obtain a fish toxicity safety factor of >28. Thus, the concentration of the trans-isomerof Compound (2) which kills 50% of pests corresponds to less than 1/28 of the concentration of the same isomer which kills 50% of fish. In other words, this means that the trans-isomer of Compound (2) is extremely safe to fish.

[9] abbreviates: 24 h, read-out: Pesticidal effect, tobacco cutworm.
Setting [10] is: 1.0 μg/Larva, final-instar larva, 24 hours, read-out: % Mortality.
Setting [11] is: 10 μg/Larva, final-instar larva, 24 hours, read-out: % Mortality.
Where [12] appears, read: 0.1 μg/Larva, 3-instar larvae, 24 hours, read-out: % Mortality.

Each structure is given as a SMILES string. ≈ marks a conversion by molar mass, not a printed value. Where two headings read alike, the source gives them in different places.

Take `CC1(C)C(C=C(Cl)Cl)C1C(=O)OCc1cccc(Oc2cccc(Cl)c2)c1` (stereo not drawn): in data set [1], the mortality at 0.5 µg/female amounted to 60% and the mortality at 1 µg/female was 93%.

For the compound `CC1(C)C(C=C(Cl)Cl)C1C(=O)OCc1cccc(Oc2ccccc2Cl)c1` (stereo not drawn), in data set [1], the mortality at 0.5 µg/female amounted to 30% and the mortality at 1 µg/female amounted to 60%.

As to `Cc1ccc(Oc2cccc(COC(=O)C3C(C=C(Cl)Cl)C3(C)C)c2)cc1` (stereo not drawn), in data set [1], the mortality at 0.5 µg/female came to 80% and the mortality at 1 µg/female is 100%.

In [1], `Cc1cccc(Oc2cccc(COC(=O)C3C(C=C(Cl)Cl)C3(C)C)c2)c1` (stereo not drawn) came in with a mortality at 0.5 µg/female of 50% and a mortality at 1 µg/female of 80%.

In [1], `Cc1ccc(Oc2cccc(C(C#N)OC(=O)C3C(C=C(Cl)Cl)C3(C)C)c2)cc1C` (stereo not drawn) returned a mortality at 0.5 µg/female of 40% and a mortality at 1 µg/female of 80%.

Regarding `CC1(C)C(C=C(Cl)Cl)C1C(=O)OCc1cccc(Oc2ccc(Cl)c(Cl)c2)c1` (stereo not drawn), in [1], the mortality at 0.5 µg/female worked out at 0% and the mortality at 1 µg/female is 20%.

Turning to `CC1(C)C(C=C(Cl)Cl)C1C(=O)OC(C#N)c1cccc(Oc2cc(Cl)cc(Cl)c2)c1` (stereo not drawn), in [1], the mortality at 0.5 µg/female amounted to 0% and the mortality at 1 µg/female worked out at 27%.

As to `CC1(C)C(C=C(Cl)Cl)C1C(=O)OCc1cccc(Oc2ccc(Br)cc2)c1` (stereo not drawn), in [2], the mortality at 6.5 ppm was determined as 10% and the mortality at 13 ppm was 100%.

In data set [2], `C#CC(OC(=O)C1C(C=C(Cl)Cl)C1(C)C)c1cccc(Oc2ccc(Br)cc2)c1` (stereo not drawn) returned a mortality at 6.5 ppm of 0% and a mortality at 13 ppm of 90%.

By LD50 is commonly meant the dose expected to kill half of the subjects tested. As for `CCC(C)c1ccccc1OC(=O)NC` (stereo not drawn) [Bassa, o-sec-butylphenyl methylcarbamate], in data set [3], the LD50 stood at 93.8 mg/kg.

As to `CC1(C)C(C=C(Cl)Cl)C1C(=O)OCc1cccc(Oc2ccc(Cl)cc2)c1` (stereo not drawn) [Compound (1) cis-/trans- = 30:70], the “LD50 (median lethal dose)” value in data set [3] (green rice leafhoppers, 1440 min) is 0.85 µg/g.

On to `CC(C)=CC1C(C(=O)OCc2cccc(Oc3ccccc3)c2)C1(C)C` (stereo not drawn) [Compound (A), Phenothrin], for which, in data set [3], the mortality at 0.01 µg/female was determined as 80%, the mortality at 0.1 µg/female came to 100%, the mortality at 1 µg/female was found to be 100% and the LD50 came to 1.22 mg/kg. Besides, the mortality at 10 ng in data set [3] turned out to be 80%. In data set [4] (24 h), the mortality at 1 µg/larva came out at 45%, the mortality at 10 µg/larva came out at 100% and the mortality at 0.001 mg worked out at 45%. The mortality at 0.0001 mg in [5] (24 h) was 35%. In addition, the mortality at 0.0001 mg in [5] (setting [9]) is 35%. In data set [1], the mortality at 0.5 µg/female came out at 97%, the mortality at 1 µg/female stood at 100% and the mortality at 0.001 mg worked out at 100%.

On to `CC1(C)C(C=C(Cl)Cl)C1C(=O)OC(C#N)c1cccc(Oc2ccc(Br)cc2)c1` (stereo not drawn) [Compound (H)], for which, in data set [3], the mortality at 0.01 µg/female was 100%, the mortality at 0.1 µg/female turned out to be 100%, the mortality at 1 µg/female amounted to 100% and the mortality at 10 ng was 100%. In data set [4] (24 h), the mortality at 1 µg/larva amounted to 90%, the mortality at 10 µg/larva amounted to 100% and the mortality at 0.001 mg stood at 90%. In data set [5] (24 h), this compound gave a mortality at 0.0001 mg of 60%. For the same compound, the mortality at 0.0001 mg in data set [5] (setting [9]) was determined as 60%. Besides, the LC50 at 48 h in [6] worked out at 0.063 µg/mL (≈ 0.127 µM). The Ranking entry with carp and water flea is “C (TLm (48 hrs.) value <0.5 ppm for carp, wherein toxicity to fishes is so strongly observed by usual application that both the application method and application area are strictly restricted.)”. Moreover, in data set [2], the mortality at 6.5 ppm stood at 40% and the mortality at 13 ppm was determined as 100%. Further, in data set [1], the mortality at 0.5 µg/female worked out at 100%, the mortality at 1 µg/female amounted to 100% and the mortality at 0.001 mg is 100%.

As for `CC(C)C(C(=O)OCc1cccc(Oc2ccc(Cl)cc2)c1)c1ccc(Cl)cc1` (stereo not drawn) [Compound (J)], the mortality at 1 µg/larva in data set [4] (setting [10]) is 15%. Also, in data set [4] (setting [11]), the mortality at 10 µg/larva worked out at 90%. The mortality at 0.0001 mg in data set [5] (setting [12]) is 0%.

As to `C#CC(OC(=O)C(c1ccc(Cl)cc1)C(C)C)c1cccc(Oc2ccc(Cl)cc2)c1` (stereo not drawn) [Compound (K)], in [3], the mortality at 0.01 µg/female was 33%, the mortality at 0.1 µg/female is 100% and the mortality at 1 µg/female amounted to 100%. In [5] (setting [12]), the mortality at 0.0001 mg worked out at 0%.

As to `CC(C)C(C(=O)OC(C#N)c1cccc(Oc2ccc(Cl)cc2)c1)c1ccc(Cl)cc1` (stereo not drawn) [Compound (L)], the mortality at 1 µg/larva in data set [4] (setting [10]) came out at 85%. For the same compound, the mortality at 10 µg/larva in data set [4] (setting [11]) worked out at 100%. Besides, the mortality at 0.0001 mg in data set [5] (setting [12]) was determined as 35%. Moreover, in [6], the LC50 at 48 h amounted to 0.032 µg/mL (≈ 0.0704 µM). In addition, in the data set on carp and water flea, the Ranking entry is “C (TLm (48 hrs.) value <0.5 ppm for carp, wherein toxicity to fishes is so strongly observed by usual application that both the application method and application area are strictly restricted.)”. Also, the LC50 in data set [7] was 2260 µg/mL (≈ 4970 µM). Also, the selectivity ratio in data set [8] is 0.0071.

In the case of `CCOP(=S)(OCC)Oc1cc(C)nc(C(C)C)n1` [Diazinon, diazinon], the LD50 in [3] came out at 72.2 mg/kg.

Turning to `COP(=S)(OC)Oc1ccc([N+](=O)[O-])c(C)c1` [Fenitrothion, fenitrothion], in data set [3], the LD50 worked out at 4050 mg/kg.

On to `CCOC(=O)CC(SP(=S)(OC)OC)C(=O)OCC` (stereo not drawn) [Malathion, malathion], for which the LD50 in [3] amounted to 565 mg/kg.
